In US20260306490A1, “PIM1 INHIBITOR FOR TREATING MYELOPROLIFERATIVE NEOPLASMS” (Sumitomo Pharma America, Inc., priority 2022, published 2026):
Read-outs that look alike come from different tables or passages of the source. Blank lines part the entries; values can stand above or below the molecule they belong to.

Tests used:
[1] = test system: human erythroid progenitors (CFU-E, BFU-E); test: Colony forming cell assay, human erythroid progenitor (CFU-E, BFU-E) proliferation; type: cell-based; details: 336 h, single agent, 14 days, CFU-E and BFU-E
Description: (§1) Clonogenic progenitors of human erythroid (CFU-E, BFU-E), granulocyte-monocyte (CFU-GM), and multipotential (CFU-GEMM) lineages were assessed in a semi-solid methylcellulose-based media formulation containing rhIL-3 (10 ng/mL), rhGM-SCF (10 ng/mL), rhSCF (50 ng/mL), and Epo (3 U/mL).
(§2) In addition, 5-FU was evaluated at 1.0, 0.1 and 0.01 μg/mL as a positive control for toxicity.
(§3) Normal human bone marrow light density cells (lot #0210901), derived from normal bone marrow, (Lonza, Maryland) and qualified at ReachBio, were stored at −152° C. until required for the assay. On the day of the experiment, the cells were thawed rapidly, diluted in 10 mL of Iscove's modified Dulbecco's medium containing 10% fetal bovine serum (IMDM+10% FBS) and washed by centrifugation (approximately 1500 r.p.m. for 10 minutes at room temperature). The supernatant was discarded and the cell pellets were resuspended in a known volume of IMDM+10% FBS. A cell count (3% glacial acetic acid) and viability assessment (trypan blue exclusion test) was performed for the bone marrow sample.
Clonogenic progenitors of human megakaryocyte (CFU-Mk) were assessed in a collagen-based media formulation containing rhIL-3 (10 ng/mL), rhIL-6 (10 ng/mL), and Tpo (50 ng/mL). Clonogenic progenitors of the human erythroid (CFU-E and BFU-E), myeloid (CFU-GM), and megakaryocyte (CFU-Mk) lineages were set up in the media formulations described above. Individually, the test compounds were added to the medium to give the final desired concentrations (10, 3.33, 1, 0.333, 0.1, 0.0333, 0.01 and 0.00333 μM). […]
Human myeloid and erythroid progenitor assays were initiated at 1.2×10^4 cells per culture (lot #0210921) and the human megakaryocyte assays were initiated at 1.2×10^5 cells per culture (lot #0210921). Following 14 days in culture, erythroid and myeloid colonies were assessed microscopically in situ and scored by trained personnel. […] The colonies were assessed microscopically and scored by trained personnel and divided into the following categories based on size: CFU-Mk (3-20), CFU-Mk (21-49), and CFU-Mk (≥50).
Statistical analysis: The mean±standard deviation of three replicate cultures was calculated for both erythroid and myeloid progenitors. […]
(§4) Erythroid (CFU-E and BFU-E) and myeloid (CFU-GM) colony enumeration was performed by trained personnel. In addition, the distribution of colony types as well as general colony and cellular morphology was analyzed. The variance in colony number detected in replicate cultures was representative of the historical coefficient of variation for colony enumeration using these types of assays. The number and distribution of colonies detected in the solvent control (0.1% DMSO for single agents) was no different from the standard control (containing no compound and no DMSO). […]

[2] = test system: human myeloid progenitors (CFU-GM); test: Colony forming cell assay, human myeloid (granulocyte-monocyte, CFU-GM) progenitor proliferation; type: cell-based; details: single agent
Description: as §1, §2, §3
(§5) Clonogenic progenitors of human megakaryocyte (CFU-Mk) were assessed in a collagen-based media formulation containing rhIL-3 (10 ng/mL), rhIL-6 (10 ng/mL), and Tpo (50 ng/mL). Clonogenic progenitors of the human erythroid (CFU-E and BFU-E), myeloid (CFU-GM), and megakaryocyte (CFU-Mk) lineages were set up in the media formulations described above. Individually, the test compounds were added to the medium to give the final desired concentrations (10, 3.33, 1, 0.333, 0.1, 0.0333, 0.01 and 0.00333 μM). […] Solvent control cultures (containing no compound but 0.1% DMSO) as well as standard controls (containing no compound and no DMSO) were also initiated. Once introduced into the matrices, the tubes were vortexed to ensure an equal distribution throughout.
(§6) Human myeloid and erythroid progenitor assays were initiated at 1.2×10^4 cells per culture (lot #0210921) and the human megakaryocyte assays were initiated at 1.2×10^5 cells per culture (lot #0210921). Following 14 days in culture, erythroid and myeloid colonies were assessed microscopically in situ and scored by trained personnel. The colonies were divided into the following categories based on size and morphology: CFU-E, BFU-E, CFU-GM, and CFU-GEMM. The human megakaryocyte cultures were transferred from the 35 mm dishes to labeled glass slides, fixed with methanol/acetone fixative, and then stained with anti-human CD41 antibody and an alkaline phosphate detection system according to manufacturers' instructions. The colonies were assessed microscopically and scored by trained personnel and divided into the following categories based on size: CFU-Mk (3-20), CFU-Mk (21-49), and CFU-Mk (≥50).
(§7) Statistical analysis: The mean±standard deviation of three replicate cultures was calculated for both erythroid and myeloid progenitors. Two-tailed standard t-tests were performed to assess if there was a difference in the number of colonies generated between solvent control and treated cultures. Due to the potential subjectivity of colony enumeration, a p value of less than 0.01 is deemed significant. To calculate the concentration of 50% inhibition of colony growth (IC50) for each compound, a dose response curve was generated plotting the log of the compound concentration versus the percentage of control colony growth using GraphPad Prism 9 software.
as §4

[3] = test system: human megakaryocyte progenitors (CFU-Mk); test: Colony forming cell assay, human megakaryocyte progenitor (CFU-Mk) proliferation; type: cell-based; details: Homo sapiens; single agent; read-out: IC50, total CFU-Mk (megakaryocyte progenitor proliferation)
Description: as §2, §3, §5, §6, §7
Other than the test compounds being combined, the only change from the method in Example 1 was a 0.2% DMSO solvent control instead of 0.1% DMSO. The results are provided in FIGS. 2A-4C (FIGS. 2A-2C are human megakaryocytes (CFU-MK), FIGS. 3A-3C are human erythroid (CFU-E, BFU-E), and FIGS. 4A-4C are human granulocyte-monocyte (CFU-GM).

R/R MF = details: monotherapy, cited from earlier work
MF patients = details: MOMENTUM, monotherapy 200 mg QD, N = 195; cited from earlier work
R/R MM = details: n = 79; cited from earlier work
[4] = test system: hematology parameters (platelet counts); test: CGLP preclinical dog study, hematology parameters; type: in vivo
PIM1 = details: cited from earlier work
PIM2 = details: cited from earlier work
PIM3 = details: cited from earlier work
R/R AML = details: R/R AML, n = 32; cited from earlier work
Solid tumor = details: n = 35; cited from earlier work

Structure (SMILES): N#CCNC(=O)c1ccc(-c2ccnc(Nc3ccc(N4CCOCC4)cc3)n2)cc1 [momelotinib]
IC50 [1]: 1600 nM
IC50 ([2]; Homo sapiens, 336 h, 14 days, CFU-GM): 260 nM
concentrations at which myeloid progenitor proliferation was (significantly, additionally) inhibited ([2]; vs 0.1% DMSO solvent control, p<0.01): 1.0 µM
IC50 [3]: 300 nM
SVR35 at Week 24 (R/R MF; ≥25 × 10^9/L PLT): 23%
TSS50 at Week 24 (R/R MF; ≥25 × 10^9/L PLT): 25%
TEAE Anemia, All Gr (MF patients): 99%
TEAE Anemia, ≥3 Gr (MF patients): 61%
TEAE Neutropenia, All Gr (MF patients): 29%
TEAE Neutropenia, ≥3 Gr (MF patients): 12%
TEAE Thrombocytopenia, All Gr (MF patients): 76%
TEAE Thrombocytopenia, ≥3 Gr (MF patients): 28%

Structure (SMILES): C[C@@H]1C[C@H](N)C[C@H](c2ccncc2NC(=O)c2ccc(F)c(-c3c(F)cccc3F)n2)C1 [PIM447]
Hem AE, G3+ anemia (R/R MM): G3+ anemia (20%),
Hem AE, G3+ neutropenia (R/R MM): (20%)
Hem AE, G3+ thrombocytopenia (R/R MM): (33%)
Non-hem AE, G3+ diarrhea (R/R MM): (6.3%),
Non-hem AE, pneumonia (R/R MM): pneumonia (7.6%)

hematology parameters ([4]; 10 mg/kg/day, either sex): not considered to be altered
platelet counts (PLT) increase ([4]; 30 mg/kg/day, females): 12.1%
platelet counts (PLT) increase ([4]; 30 mg/kg/day, males): 16.5%
platelet counts (PLT) increase ([4]; 90 mg/kg/day, females): 26.3%
platelet counts (PLT) increase ([4]; 90 mg/kg/day, males): 20%
Structure (SMILES): CN1CCC(CNc2ccc3ncc(-c4cccc(OC(F)(F)F)c4)n3n2)CC1 [Compound (2)]
IC50 (PIM2; unit inferred, read-out: PIM2 IC50): 980 nM
IC50 (PIM3; unit inferred, read-out: PIM3 IC50): 20 nM

Structure (SMILES): N[C@@H]1CCCN(c2c(/C=C3\SC(=O)NC3=O)cccc2-c2ccccc2)C1 [AZD1208]
IC50 (PIM3; read-out: Preclinical IC50, PIM3): 1.9 nM
Efficacy, circulating blasts (in several patients) (R/R AML): response, reduction
Hem AE, Febrile neutropenia (R/R AML): (28%)
Non-hem AE, diarrhea (R/R AML): diarrhea (44%),
Non-hem AE, nausea (R/R AML): Nausea (47%)
Non-hem AE, pneumonia (R/R AML): pneumonia (19%)
Non-hem AE, vomiting (R/R AML): vomiting (31%),
Efficacy, stable disease for ≥6 weeks (Solid tumor): ≥6 weeks in 13 patients
Hem AE, Anemia (Solid tumor): Anemia (51%),
Hem AE, Thrombocytopenia (Solid tumor): (14-26%)
Hem AE, WBC decreased (Solid tumor): WBC decreased (26%)
Non-hem AE, diarrhea (Solid tumor): Diarrhea (83%),
Non-hem AE, nausea (Solid tumor): nausea (74%)
Non-hem AE, vomiting (Solid tumor): vomiting (54%),

Structure (SMILES): CC1(C)CCC(c2ccc(Cl)cc2)=C(CN2CCN(c3ccc(C(=O)NS(=O)(=O)c4ccc(N[C@H](CCN5CCOCC5)CSc5ccccc5)c(S(=O)(=O)C(F)(F)F)c4)cc3)CC2)C1 [Navitoclax, navitoclax]
SVR35 at Week 24 (R/R MF; ≥100 × 10^9/L PLT): 7%
TSS50 at Week 24 (R/R MF; ≥100 × 10^9/L PLT): 10%
